In publication PMC10470313, “Developing a peptide to disrupt cohesin head domain interactions” (iScience, 2023):
“And” between values parts separate entries of the source, which are not always exact repeats. Equal entries are not always repeated. “Also recorded” adds a separate entry of the source.

B1: Smc3 head domain (domain or fragment, S. cerevisiae)
chain: YIKRVIIKGFKTYRNETIIDNFSPHQNVIIGSNGSGKSNFFAAIRFVLSDDYSNLKREERQGLIHQGSGGSVMSASVEIVFHDPDHSMILPSGVLSRGDDEVTIRRTVGLKKDDYQLNDRNVTKGDIVRMLETAGFSMNNPYNIVPQGKIVALTNAKDKERLQLLEDVVGAKSFEVKLKASLKKMEETEQKKIQINKEMGELNESSKHPTSLVPRGNFKKFNERRKDLAERASELDESKDSIQDLIVKLKQQKVNAVDSTFQKVSENFEAVFERLVPRGTAKLIIHRKNDNANDHDESIDVDMDAESNESQNGKDSEIMYTGVSISVSFNSKQNEQLHVEQLSGGQKTVCAIALILAIQMVDPASFYLFDEIDAALDKQYRTAVATLLKELSKNAQFICTTFRTDMLQVADKFFRVKYENKISTVIEVNREEAIGFIRGSNKFAEV
notes: Smc3, S. cerevisiae, N-terminal part of the head domain, amino acids 2-204; 13 amino acids linker in place of the coiled coil and hinge; Smc3, S. cerevisiae, C-terminal part of the head domain, amino acids 1001-1230; also called Smc3hd; source: E. coli BL21, purified (Ni-NTA, twice)

Key:
[1] = test system: yIO-001 strain yeast cells; experiment: Peptide entry into yeast cells (epifluorescence microscopy); type: cell-based; settings: 10 mM peptide, 1 h, 30°C, mid-log phase, FITC epifluorescence
Procedure: The formation of Smc3/CIP3 complexes supports our preliminary conclusion that CIP3 inhibits cohesin activity in cells. Aiming to improve the stability of the peptide in cells, we switched to using an in vitro synthesized peptide. This approach has been successfully used to inhibit protein-protein interactions in both yeast and mammalian cells.[26]^,[38]^,[39]^,[40]^,[41] […] We validated peptide entry into yeast by incubating a 26-amino acid control peptide (ContP), which was fused to the TAT, and a fluorescein isothiocyanate (FITC) fluorophore. Thereafter, 10 mM of the ContP was added to yIO-001 strain cells grown to mid-log phase at 30°C. The cells were incubated with the peptide for 1 h and analyzed by epifluorescence microscopy.
Supplementary Figure S3. Binding of CIP3-TAT to cohesin by microscale thermophoresis, Related to Figure 3. 10 µM CIP3-TAT was added to protein extracts from strain yAM-945 (Smc3-GFP). The formation of the CIP3-TAT and cohesin complex was analyzed by MST in binding mode. A. MST trace. B. Binding analysis.
Supplementary Figure S4. […]
3. […] The purified proteins were analyzed on gel, followed by coomassie staining. […]
Supplementary Figure S5. […] The entry of the peptide into the cells was analyzed by epifluorescence microscopy.
Supplementary Figure S6. […] The cell cycle stage of the cells, described in Fig. 4B, was determined by flow cytometry. […]

[2] = test system: cohesin in yeast cells; experiment: Preliminary analysis of biological effect; type: cell-based
Procedure: (§1) Strains yIO1000 (control) and yME-031 (pGAL-CIP1), yME-016 (pGAL-CIP2), and yME-019 (pGAL-CIP3) cells were diluted in SC-URA galactose medium, and their growth rate was measured by optical density at 600 nm every 120 min. Cohesin is essential for cell division, so we expected that inhibition of cohesin activity by expressing a CIP would affect the cell growth rate.
The CIP3 sequence is derived from the C-terminal region of Smc1. The 15 amino acid sequence is conserved, encoding part of a short loop and the beginning of an alpha helix located at the bottom of the head domain (Figures 1A–1C). […] We used the HPepDock 2.0 server[32]^,[33]^,[34]^,[35] to predict the docking site of CIP3 on Smc3. The coordinates of the Smc3 structure (PDB: 4ux3)[36] were entered as the receptor input and CIP3 as the sequence as the peptide input and the analysis was done using the default parameter. […] CIP3 may interfere with ATP binding to the Walker A site in Smc3. Alternatively, it may misplace the hydrolysis motif in Smc1 and inhibit that ATPase activity. It is important to note that dynamics models are required to understand the structural basis of the Smc3-CIP3 complex fully, as well as experimental validation of the model.

[3] = test system: yeast cells (pGAL-CIP strains); experiment: Yeast growth rate with galactose-induced peptide expression (OD600); type: cell-based, Saccharomyces cerevisiae; settings: OD 600 nm every 120 min; for growth of cells overexpressing the peptide: SC-URA galactose medium, compared with control plasmid; for growth rate vs control, multiple linear regression coefficient B: logarithmic phase, galactose medium, representative experiment, vs control strain yIO1000
Excerpt: We designed three cohesin-inhibiting peptides (CIPs, Table 1) to inhibit Smc1/Smc3 protein-protein interaction. CIP1 and CIP2 were derived from conserved regions in Smc3, while CIP3 was derived from a conserved region in Smc1 (Figure 1E). To explore the biological effect of the peptides on cohesin, we sought to overexpress them in cells. For that purpose, we constructed a centromeric plasmid—pME4 (CIP1), pME2 (CIP2), and pME3 (CIP3), in which the peptide coding sequence was inserted after an ATG codon and under the control of a GAL promoter. Cells were transformed with the plasmids and grown in an SC-URA medium. In addition, we transformed cells with a control plasmid (pIO014).
as §1
Figure 2 CIP3 causes cell growth delay Strains yIO1000 (control) and yME-031 (pGAL-CIP1), yME-016 (pGAL-CIP2), and yME-019 (pGAL-CIP3) cells were grown in a galactose-containing medium to induce peptide expression. Cell growth was monitored every 120 min to measure the optical density of the culture at 600 nm. The growth rate in the logarithmic growth phase was calculated. The results of a representative experiment are shown.

[4] = test system: yeast cells; experiment: Yeast growth with CIP3 expressed from T2A ribosome-skipping vector; type: cell-based, Saccharomyces cerevisiae; settings: CIP3 followed by GFP in T2A vector, GAL promoter
Excerpt: The weak effect of CIP3 expressed in cells may relate to several reasons, including low expression levels, low translation efficiency, or cellular instability of short mRNAs and peptides. We tried to increase cellular mRNA stability by using a plasmid containing the T2A ribosome-skipping sequence under GAL promoter control.[29]^,[30]^,[31] Two genes cloned in tandem and separated by a T2A linker were expressed as a single mRNA. The ribosome skips the T2A sequence during translation, resulting in two separate proteins (Figure S1A. Peptide expression from a plasmid containing T2A ribosome-skipping sequence, related to Figure 2). To test the system, we cloned green fluorescent protein (GFP) and mCherry in tandem, separated by the T2A sequence. Cells carrying the plasmids were grown in SC-URA with either noninducing raffinose or inducing galactose. […] Both GFP and mCherry proteins were detected by western blot analysis of extracts from these cells (Figure S1C. Peptide expression from a plasmid containing T2A ribosome-skipping sequence, related to Figure 2). […]

[5] = test system: cohesin holocomplex; experiment: ATPase assay of cohesin holocomplex (free Pi); type: biochemical, S. cerevisiae; settings: 10 nM cohesin, 20 nM loader, dsDNA, 0.25 mM ATP, 20 mM TAT-CIP3 as printed, 30°C, absorbance 650 nm
Procedure: The formation of the Smc3-CIP3 complex likely affects the ATPase activity. To explore this possibility, we expressed and purified S. cerevisiae cohesin holocomplex and the loader from yeast cells[37] (Figure S4. Purification of cohesin holocomplex and loader, related to Figure 3), and we measured the ATPase rate of cohesin in the presence of cohesin, the loader DNA, and ATP, as previously described.[37] Cohesin was preincubated without or with CIP3, and the accumulation of free Pi was measured over 30 min. In the absence of CIP3, Pi accumulation was constant over time, indicating continuous ATP hydrolysis.
Cohesin and the Scc2-Scc4 loader were expressed in S. cerevisiae as described in[37] with the following modifications: Cells were resuspended in buffer A (50 mM Hepes-NaOH pH 7.5, 300 mM NaCl, 2 mM MgCl2, 20% (vol/vol) glycerol, 0.5 mM Tris(2-carboxyethyl)phosphine hydrochloride (TCEP), 0.5 mM Pefabloc (Sigma-Aldrich), and a protease inhibitor cocktail (Sigma-Aldrich) and lysed by seven continuous passes in EmulsiFlexby-C3 (Avastin) at 4°C. The lysate was clarified, and purifications were continuous, as described in.[37]
ATPase assay has been done with the piColorLock kit (Expedeon) according to the manufacturer manual. […] The reaction was incubated at 30°C for 20 minutes and the amount of free was measured for 30 min minutes by absorbance in 650 nm every 5 min […].

[6] = biological target: T1, CIP3-TAT (S. cerevisiae | HIV); experiment: field-effect biosensing (FEB Agile R100); 500 nM peptide immobilised on a graphene sensor chip; purified Smc3 head domain as analyte in rising concentrations; PBS baseline; without ATP; Kd by Hill fit or from kon and koff at a single concentration; settings: both partners purified
T1 construct: Smc1, S. cerevisiae, residues 1121-1135 (conserved region of the head domain); linker between the Smc1 stretch and the TAT stretch; 11-amino acid peptide from the HIV TAT protein, added for delivery into cells; The methods of the biosensing experiment call the immobilised peptide CIP3; also called TAT-CIP3; source: synthetic peptide (Fmoc solid-phase synthesis, purified by preparative RP-HPLC)
T1 peptide: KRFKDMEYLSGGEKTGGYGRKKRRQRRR

[7] = biological target: T1, CIP3-TAT; experiment: field-effect biosensing (FEB Agile R100); 500 nM peptide immobilised on a graphene sensor chip; purified Smc3 head domain as analyte, incubated with ATP (10 mM) before the measurement; settings: both partners purified

Molecule	biological effect, preliminary analysis [2]	growth of cells overexpressing the peptide [3]	growth rate vs control, multiple linear regression coefficient B [3]	also measured
FITC-SGYGRKKRRQRRR-GGGLNPYWMETFT [ContP, 26-amino acid control peptide fused to the TAT and a fluorescein isothiocyanate (FITC) fluorophore]	–	–	–	peptide entry into yeast cells [1]: emission from cells incubated with the ContP peptide
MIIGSNGSGKSN [CIP2, expressed from pME2]	do not have a detectable biological effect	no significant decrease in growth rate	−0.290	–
MKRFKDMEYLSGGEKT [CIP3, expressed from pME3]	–	weak growth delay; also recorded: significant decrease in growth rate	−0.727	growth inhibition compared to previous (non-T2A) experiment [4]: the inhibition fold was not improved; Pi accumulation (ATPase activity) after 5 min [5]: Pi accumulation dropped sharply, indicating that ATPase activity was inhibited
MKQNEQLHVEQLSGGQKTV [CIP1, expressed from pME4]	do not have a detectable biological effect	no significant decrease in growth rate	0.015	–
B1	–	–	–	Kd [6]: 53.9 nM and 56 nM; Kd [7]: 544.2 ± 0.06 nM
